These results are taken from PMC5723347, “Silencing of D-Lactate Dehydrogenase Impedes Glyoxalase System and Leads to Methylglyoxal Accumulation and Growth Inhibition in Rice” (Frontiers in Plant Science, 2017).

This assay relates to T1, OsD-LDH-FL.
T1 construct: full-length 561 residues including mitochondrial targeting peptide, N-terminal GST tag kept (pGEX-6P-1), 87 kDa fusion, expressed in E. coli BL21 (DE3)
Nature of the assay: spectrophotometric cytochrome c reduction at […] nm, Hanes-Woolf. It counts as biochemical, Oryza sativa subsp. indica. To be noted: 200 μM cytochrome c as electron acceptor, pH 8.35, 30°C, 50 mM potassium phosphate.

Where two headings read alike, the source gives them in different places.

`CC[C@@H](O)C(=O)O` [D-2-hydroxybutyrate]: the Km (read-out: D-2-HB / KM) turned out to be 11 ± 0.34 µM.
Regarding `C[C@@H](O)C(=O)O` [D-lactate], the Km (read-out: D-LACTATE / KM) came out at 41.4 ± 2.93 µM.
